Laboratory results as given in patent US20150313824A1, “SKIN CARE COMPOSITION” (Conopco, Inc., d/b/a UNILEVER, priority 2013, published 2015).

tested on: EA.Hy926 cells; assay: Measurement of intracellular nitric oxide using flow-cytometry (DAF FM-DA); type: cell-based, human; conditions: summary of the data in Table-1
Description: The cultured human endothelial cell line EA.Hy926 cells were procured from American Type Culture Collection ([…]) and were cultured in DMEM (Sigma) supplemented with 2 mM L-glutamine, 100 U/ml penicillin, 100 μg/ml streptomycin and 10% vol/vol FBS (Gibco, Invitrogen). Cells were cultured at 37° C. in 95% humidified air with 5% CO2. After attaining 70-80% confluence, the cells were sub-cultured by trypsinization (0.25% Tryp-EDTA, for 2-3 min). For experimental purpose, cells were seeded onto 24 well tissue culture plates (CLS3524 Sigma). […] Measurement of Intracellular Nitric Oxide Using Flow-Cytometry Experimental Flow: […] EAHy926 (5×10^5) cells were seed into 24 well tissue culture plate and allowed to adhere for 12-16 hrs. 2. After adherence, cells were treated with or without 4.41 μg/ml (10 μM) folic acid and incubated for 24 hrs in DMEM without FBS. 3. The cells in 24 well tissue culture plates were loaded with DAF FM-DA (1 μM) for 30 min, washed twice with serum free medium. 4. Subsequently, cells were stimulated with different concentration of EGCG for 30 mins and washed twice with serum free medium. 5. The stimulated cells were trypsinized with 0.25% Trypsin-EDTA and fixed with 2% PFA for 15 min. 6. The suspension of cells were acquired using flow-cytometry. A population of 10,000 cells were gated and segregated based on their relative fluorescence intensities using FACS Calibur (BD; SanDiego). The mean yield of two distinct populations was measured and compared with the respective population in untreated cells. The data on the Nitric Oxide activity is summarized in Table-1 for the various compositions which may be […] catechins (EGCG) alone at various concentrations or folic acid alone or EGCG in combination with folic acid.

Question: Which “NO activity, effect of increasing concentration or of combination (in words)” value does the source give for `O=C(O[C@@H]1Cc2c(O)cc(O)cc2O[C@@H]1c1cc(O)c(O)c(O)c1)c1cc(O)c(O)c(O)c1` [EGCG, (−)-epigallocatechin gallate] here?
Answer: Its value is “increases NO activity till an EGCG concentration of about 11 μg and thereafter the NO activity decreases”.

same assay, conditions: with or without folic acid pretreatment 24 hrs, then EGCG stimulation 30 mins, DAF FM-DA fluorescence compared with untreated cells (1.0 = no increase over untreated sample)

Question: `O=C(O[C@@H]1Cc2c(O)cc(O)cc2O[C@@H]1c1cc(O)c(O)c(O)c1)c1cc(O)c(O)c(O)c1` [Example 2, EGCG] was tested. Which NO activity did it give?
Answer: Its NO activity is 2.87.

Question: With `O=C(O[C@@H]1Cc2c(O)cc(O)cc2O[C@@H]1c1cc(O)c(O)c(O)c1)c1cc(O)c(O)c(O)c1` [Example 3, EGCG] as the compound, how does the NO activity read?
Answer: The NO activity was 2.98.

Question: `O=C(O[C@@H]1Cc2c(O)cc(O)cc2O[C@@H]1c1cc(O)c(O)c(O)c1)c1cc(O)c(O)c(O)c1` [Example 8, EGCG] was tested. Which NO activity did it give?
Answer: Its NO activity is 0.63.

Question: With `O=C(O[C@@H]1Cc2c(O)cc(O)cc2O[C@@H]1c1cc(O)c(O)c(O)c1)c1cc(O)c(O)c(O)c1` [Example 7, EGCG] as the compound, how does the NO activity read?
Answer: The NO activity was 1.64.

Question: For `O=C(O[C@@H]1Cc2c(O)cc(O)cc2O[C@@H]1c1cc(O)c(O)c(O)c1)c1cc(O)c(O)c(O)c1` [Example 4, EGCG], which NO activity is on record?
Answer: Its NO activity is 3.75.

Question: With `O=C(O[C@@H]1Cc2c(O)cc(O)cc2O[C@@H]1c1cc(O)c(O)c(O)c1)c1cc(O)c(O)c(O)c1` [Example 5, EGCG] as the compound, how does the NO activity read?
Answer: The NO activity was 3.58.

Question: With `O=C(O[C@@H]1Cc2c(O)cc(O)cc2O[C@@H]1c1cc(O)c(O)c(O)c1)c1cc(O)c(O)c(O)c1` [Example 6, EGCG] as the compound, how does the NO activity read?
Answer: The NO activity was 2.32.
